Assay [1] concerns the target Serine/threonine-protein kinase ATR (Homo sapiens, UniProt Q13535).
The target of assay [2] is Cell division cycle 7-related protein kinase (Homo sapiens, UniProt O00311).
The target in assay [3] is Dual specificity protein kinase CLK2 (Homo sapiens, UniProt P49760).
The target in assay [4] is Dual specificity protein kinase CLK4 (Homo sapiens, UniProt Q9HAZ1).
For another assay, the target named is T1, UMP-CMP kinase (Homo sapiens, UniProt P30085).
T1 sequence (P30085 whole entry): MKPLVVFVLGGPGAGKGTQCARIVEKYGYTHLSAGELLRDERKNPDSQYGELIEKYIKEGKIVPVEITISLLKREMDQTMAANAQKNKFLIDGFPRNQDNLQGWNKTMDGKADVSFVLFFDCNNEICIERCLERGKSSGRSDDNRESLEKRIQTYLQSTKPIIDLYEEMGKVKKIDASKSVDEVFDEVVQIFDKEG

Assay [5] deals with Epidermal growth factor receptor (Homo sapiens, UniProt P00533).
Assay [6] has as its target Glycogen synthase kinase-3 beta (Homo sapiens, UniProt P49841).
The target of assay [7] is T2, Isoleucine--tRNA ligase, mitochondrial (Homo sapiens, UniProt Q9NSE4).
T2 sequence (Q9NSE4 whole entry): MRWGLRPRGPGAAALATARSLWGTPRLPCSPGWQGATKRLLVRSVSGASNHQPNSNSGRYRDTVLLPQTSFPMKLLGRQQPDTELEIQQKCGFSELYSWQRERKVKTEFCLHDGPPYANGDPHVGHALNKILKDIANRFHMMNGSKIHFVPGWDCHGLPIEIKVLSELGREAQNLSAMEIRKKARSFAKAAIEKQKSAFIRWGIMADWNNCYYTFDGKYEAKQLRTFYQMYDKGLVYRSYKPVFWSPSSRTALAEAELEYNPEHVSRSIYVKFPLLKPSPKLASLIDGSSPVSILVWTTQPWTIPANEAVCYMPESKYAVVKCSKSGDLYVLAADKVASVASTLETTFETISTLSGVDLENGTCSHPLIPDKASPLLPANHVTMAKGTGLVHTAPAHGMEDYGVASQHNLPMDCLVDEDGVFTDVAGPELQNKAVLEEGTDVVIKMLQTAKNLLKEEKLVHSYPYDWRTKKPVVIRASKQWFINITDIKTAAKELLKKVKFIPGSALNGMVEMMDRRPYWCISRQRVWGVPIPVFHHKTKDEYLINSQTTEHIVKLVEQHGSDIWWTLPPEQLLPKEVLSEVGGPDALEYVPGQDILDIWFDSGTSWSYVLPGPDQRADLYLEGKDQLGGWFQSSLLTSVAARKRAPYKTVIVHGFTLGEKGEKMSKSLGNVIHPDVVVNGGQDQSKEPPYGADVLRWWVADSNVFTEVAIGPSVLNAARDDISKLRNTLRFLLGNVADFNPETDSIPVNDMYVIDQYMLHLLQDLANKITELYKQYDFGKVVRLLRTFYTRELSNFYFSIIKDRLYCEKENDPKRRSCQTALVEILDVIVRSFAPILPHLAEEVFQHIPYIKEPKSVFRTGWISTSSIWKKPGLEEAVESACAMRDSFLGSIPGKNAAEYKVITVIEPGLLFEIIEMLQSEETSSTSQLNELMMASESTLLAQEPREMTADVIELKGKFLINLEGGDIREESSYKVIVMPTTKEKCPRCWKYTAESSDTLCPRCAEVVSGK

Assay [8] addresses Mitogen-activated protein kinase 14 (Homo sapiens, UniProt Q16539).
For assay [9], the target named is MAP kinase-activated protein kinase 3 (Homo sapiens, UniProt Q16644).
For assay [10], the target named is Phosphatidylethanolamine-binding protein 1 (Homo sapiens, UniProt P30086).
In assay [11] the target is Membrane-associated progesterone receptor component 1 (Homo sapiens, UniProt O00264).
Assay [12] concerns the target Proto-oncogene tyrosine-protein kinase receptor Ret (Homo sapiens, UniProt P07949).
The target in assay [13] is Dual specificity testis-specific protein kinase 1 (Homo sapiens, UniProt Q15569).
In assay [14] the target is DNA topoisomerase 2-alpha (Homo sapiens, UniProt P11388).
For assay [15], the target named is T3, Cyclin-dependent kinase-like 5 (Homo sapiens, UniProt O76039).
T3 sequence (O76039 whole entry): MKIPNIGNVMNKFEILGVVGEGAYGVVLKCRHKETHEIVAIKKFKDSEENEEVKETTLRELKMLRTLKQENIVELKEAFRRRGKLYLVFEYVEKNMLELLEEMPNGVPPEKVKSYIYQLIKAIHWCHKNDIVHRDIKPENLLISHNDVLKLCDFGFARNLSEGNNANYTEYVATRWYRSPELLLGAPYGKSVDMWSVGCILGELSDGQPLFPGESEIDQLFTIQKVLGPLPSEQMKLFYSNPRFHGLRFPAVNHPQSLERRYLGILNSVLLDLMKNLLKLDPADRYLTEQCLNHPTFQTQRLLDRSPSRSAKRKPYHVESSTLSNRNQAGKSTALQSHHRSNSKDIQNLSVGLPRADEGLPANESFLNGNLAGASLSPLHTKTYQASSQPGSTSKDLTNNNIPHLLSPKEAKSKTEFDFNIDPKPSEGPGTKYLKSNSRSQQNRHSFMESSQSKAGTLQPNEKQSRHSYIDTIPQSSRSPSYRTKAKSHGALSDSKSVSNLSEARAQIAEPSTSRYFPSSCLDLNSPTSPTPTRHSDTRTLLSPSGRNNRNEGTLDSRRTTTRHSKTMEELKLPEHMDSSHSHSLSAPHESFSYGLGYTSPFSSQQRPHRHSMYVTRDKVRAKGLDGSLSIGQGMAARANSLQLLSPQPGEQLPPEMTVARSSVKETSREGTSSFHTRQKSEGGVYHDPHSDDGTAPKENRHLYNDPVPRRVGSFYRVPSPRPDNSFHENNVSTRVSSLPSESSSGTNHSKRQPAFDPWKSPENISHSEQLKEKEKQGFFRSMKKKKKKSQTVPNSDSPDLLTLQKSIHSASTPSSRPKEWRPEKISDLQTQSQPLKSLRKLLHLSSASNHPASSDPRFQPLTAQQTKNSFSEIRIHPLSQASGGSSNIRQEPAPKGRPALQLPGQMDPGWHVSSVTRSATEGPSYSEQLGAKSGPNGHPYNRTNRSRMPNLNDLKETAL

Molecules are shown by their SMILES. pKd: −log10 of the molar value. Activity calls are given as the source filed them.
Further: in the data inactive means no Kd found up to 30 µM.

Chain of Dual specificity testis-specific protein kinase 1 (Q15569 whole entry): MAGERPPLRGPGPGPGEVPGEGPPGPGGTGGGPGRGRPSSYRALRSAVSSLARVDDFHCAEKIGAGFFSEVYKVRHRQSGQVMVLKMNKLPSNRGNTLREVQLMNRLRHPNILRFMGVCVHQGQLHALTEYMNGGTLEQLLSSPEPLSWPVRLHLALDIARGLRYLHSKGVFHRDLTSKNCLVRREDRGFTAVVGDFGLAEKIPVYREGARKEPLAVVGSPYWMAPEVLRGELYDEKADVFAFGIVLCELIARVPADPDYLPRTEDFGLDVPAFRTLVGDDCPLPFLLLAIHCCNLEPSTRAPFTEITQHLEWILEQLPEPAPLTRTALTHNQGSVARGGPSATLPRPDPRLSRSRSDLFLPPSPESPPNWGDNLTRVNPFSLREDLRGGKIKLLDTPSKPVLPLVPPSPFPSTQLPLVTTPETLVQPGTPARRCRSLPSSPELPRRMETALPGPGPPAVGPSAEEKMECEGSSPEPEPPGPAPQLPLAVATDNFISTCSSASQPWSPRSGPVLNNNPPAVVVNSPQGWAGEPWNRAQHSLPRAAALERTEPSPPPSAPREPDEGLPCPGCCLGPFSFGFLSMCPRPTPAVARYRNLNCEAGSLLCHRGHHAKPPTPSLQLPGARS
Chain of Proto-oncogene tyrosine-protein kinase receptor Ret (P07949 whole entry): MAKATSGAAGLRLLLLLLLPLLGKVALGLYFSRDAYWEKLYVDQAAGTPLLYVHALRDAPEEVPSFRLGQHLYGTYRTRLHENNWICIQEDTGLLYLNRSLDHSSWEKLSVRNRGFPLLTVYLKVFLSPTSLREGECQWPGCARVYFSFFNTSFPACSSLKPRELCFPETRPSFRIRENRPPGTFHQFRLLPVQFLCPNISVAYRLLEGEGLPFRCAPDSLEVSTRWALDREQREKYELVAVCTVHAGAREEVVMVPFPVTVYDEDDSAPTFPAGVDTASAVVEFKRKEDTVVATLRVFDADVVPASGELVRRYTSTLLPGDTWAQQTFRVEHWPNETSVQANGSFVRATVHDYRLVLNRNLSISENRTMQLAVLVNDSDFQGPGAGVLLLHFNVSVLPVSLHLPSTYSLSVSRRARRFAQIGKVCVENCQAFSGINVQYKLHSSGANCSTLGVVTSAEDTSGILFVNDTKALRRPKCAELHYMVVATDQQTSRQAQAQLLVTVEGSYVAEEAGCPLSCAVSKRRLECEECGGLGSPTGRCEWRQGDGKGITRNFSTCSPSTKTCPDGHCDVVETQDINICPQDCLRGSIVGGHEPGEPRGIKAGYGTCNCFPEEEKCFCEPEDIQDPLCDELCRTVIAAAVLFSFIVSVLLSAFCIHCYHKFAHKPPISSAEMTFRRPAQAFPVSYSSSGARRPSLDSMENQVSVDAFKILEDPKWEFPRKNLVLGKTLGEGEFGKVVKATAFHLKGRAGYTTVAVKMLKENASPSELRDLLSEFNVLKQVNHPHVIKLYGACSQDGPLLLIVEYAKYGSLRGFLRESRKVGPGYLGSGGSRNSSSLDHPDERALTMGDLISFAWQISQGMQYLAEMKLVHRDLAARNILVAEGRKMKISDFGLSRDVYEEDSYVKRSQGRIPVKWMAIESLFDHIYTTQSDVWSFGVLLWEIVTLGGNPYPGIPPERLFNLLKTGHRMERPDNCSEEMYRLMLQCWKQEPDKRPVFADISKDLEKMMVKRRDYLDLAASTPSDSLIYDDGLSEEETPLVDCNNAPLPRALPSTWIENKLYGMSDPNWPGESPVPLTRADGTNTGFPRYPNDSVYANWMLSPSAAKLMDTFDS
Chain of Membrane-associated progesterone receptor component 1 (O00264 whole entry): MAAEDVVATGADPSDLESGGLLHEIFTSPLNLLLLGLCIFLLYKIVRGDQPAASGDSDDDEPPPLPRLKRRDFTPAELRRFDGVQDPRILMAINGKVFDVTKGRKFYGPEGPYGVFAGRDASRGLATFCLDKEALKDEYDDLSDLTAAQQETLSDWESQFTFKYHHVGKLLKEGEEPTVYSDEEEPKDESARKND
Chain of Serine/threonine-protein kinase ATR (Q13535 whole entry): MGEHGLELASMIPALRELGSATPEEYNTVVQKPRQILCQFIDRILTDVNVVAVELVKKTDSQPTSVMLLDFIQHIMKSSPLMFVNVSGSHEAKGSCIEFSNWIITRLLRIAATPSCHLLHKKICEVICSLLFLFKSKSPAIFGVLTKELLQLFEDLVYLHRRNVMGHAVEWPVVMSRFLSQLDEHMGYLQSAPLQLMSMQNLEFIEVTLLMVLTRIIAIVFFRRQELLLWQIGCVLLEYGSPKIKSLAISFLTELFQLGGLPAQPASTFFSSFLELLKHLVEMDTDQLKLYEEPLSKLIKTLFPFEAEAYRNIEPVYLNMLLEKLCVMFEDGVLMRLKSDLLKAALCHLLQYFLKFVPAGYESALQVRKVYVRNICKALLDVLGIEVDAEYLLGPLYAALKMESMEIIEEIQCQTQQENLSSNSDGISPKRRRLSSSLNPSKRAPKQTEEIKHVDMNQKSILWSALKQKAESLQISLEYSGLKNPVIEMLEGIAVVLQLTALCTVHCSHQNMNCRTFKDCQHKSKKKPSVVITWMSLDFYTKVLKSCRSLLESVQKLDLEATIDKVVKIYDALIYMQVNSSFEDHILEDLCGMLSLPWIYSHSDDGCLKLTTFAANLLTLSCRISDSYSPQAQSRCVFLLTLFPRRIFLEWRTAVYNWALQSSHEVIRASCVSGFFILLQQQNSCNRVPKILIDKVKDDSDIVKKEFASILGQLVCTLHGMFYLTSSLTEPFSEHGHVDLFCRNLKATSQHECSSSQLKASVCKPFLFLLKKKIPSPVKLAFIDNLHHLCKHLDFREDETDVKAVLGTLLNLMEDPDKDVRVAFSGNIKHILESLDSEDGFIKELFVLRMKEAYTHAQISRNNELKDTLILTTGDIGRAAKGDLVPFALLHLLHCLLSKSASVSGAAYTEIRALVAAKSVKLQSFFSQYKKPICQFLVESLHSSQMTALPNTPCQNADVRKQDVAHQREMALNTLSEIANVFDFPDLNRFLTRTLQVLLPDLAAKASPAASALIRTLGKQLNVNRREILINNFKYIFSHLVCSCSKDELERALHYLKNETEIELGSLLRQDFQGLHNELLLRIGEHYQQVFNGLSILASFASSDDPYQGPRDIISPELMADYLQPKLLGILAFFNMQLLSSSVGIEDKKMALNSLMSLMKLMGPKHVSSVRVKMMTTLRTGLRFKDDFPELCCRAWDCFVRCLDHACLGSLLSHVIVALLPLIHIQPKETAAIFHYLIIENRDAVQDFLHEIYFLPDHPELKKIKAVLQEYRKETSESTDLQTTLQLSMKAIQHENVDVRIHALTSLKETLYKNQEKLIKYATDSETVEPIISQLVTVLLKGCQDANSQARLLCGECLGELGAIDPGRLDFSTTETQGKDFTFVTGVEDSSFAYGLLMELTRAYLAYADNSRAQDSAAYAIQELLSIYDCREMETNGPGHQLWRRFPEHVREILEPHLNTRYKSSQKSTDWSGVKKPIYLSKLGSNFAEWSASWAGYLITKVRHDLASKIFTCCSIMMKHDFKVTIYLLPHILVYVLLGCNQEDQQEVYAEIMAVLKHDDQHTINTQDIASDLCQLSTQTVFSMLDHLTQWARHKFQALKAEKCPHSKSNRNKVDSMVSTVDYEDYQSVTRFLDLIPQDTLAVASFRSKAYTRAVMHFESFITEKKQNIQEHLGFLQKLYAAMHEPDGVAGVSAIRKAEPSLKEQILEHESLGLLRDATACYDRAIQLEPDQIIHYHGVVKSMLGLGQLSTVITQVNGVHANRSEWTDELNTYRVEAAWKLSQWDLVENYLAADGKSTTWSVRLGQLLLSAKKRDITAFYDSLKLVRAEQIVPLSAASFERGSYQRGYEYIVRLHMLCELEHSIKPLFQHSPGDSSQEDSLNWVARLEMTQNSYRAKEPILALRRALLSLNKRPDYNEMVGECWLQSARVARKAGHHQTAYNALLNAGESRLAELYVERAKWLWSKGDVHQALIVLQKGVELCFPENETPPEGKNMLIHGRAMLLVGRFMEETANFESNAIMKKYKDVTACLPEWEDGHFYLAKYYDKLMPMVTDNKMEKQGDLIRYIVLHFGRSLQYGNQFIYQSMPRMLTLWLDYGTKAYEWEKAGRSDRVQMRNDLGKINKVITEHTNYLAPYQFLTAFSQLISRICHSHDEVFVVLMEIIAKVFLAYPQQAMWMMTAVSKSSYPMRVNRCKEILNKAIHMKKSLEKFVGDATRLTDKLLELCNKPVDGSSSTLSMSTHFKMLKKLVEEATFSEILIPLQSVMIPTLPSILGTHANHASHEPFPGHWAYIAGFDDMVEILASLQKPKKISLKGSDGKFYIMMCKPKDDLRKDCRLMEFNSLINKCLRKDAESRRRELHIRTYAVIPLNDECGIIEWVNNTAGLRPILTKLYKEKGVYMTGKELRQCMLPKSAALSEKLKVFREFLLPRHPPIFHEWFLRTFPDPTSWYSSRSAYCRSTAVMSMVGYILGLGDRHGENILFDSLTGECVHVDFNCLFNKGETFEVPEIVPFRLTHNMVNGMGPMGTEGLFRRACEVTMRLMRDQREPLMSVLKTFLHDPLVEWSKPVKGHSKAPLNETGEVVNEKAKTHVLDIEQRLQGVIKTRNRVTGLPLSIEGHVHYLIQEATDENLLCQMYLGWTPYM
Chain of Dual specificity protein kinase CLK4 (Q9HAZ1 whole entry): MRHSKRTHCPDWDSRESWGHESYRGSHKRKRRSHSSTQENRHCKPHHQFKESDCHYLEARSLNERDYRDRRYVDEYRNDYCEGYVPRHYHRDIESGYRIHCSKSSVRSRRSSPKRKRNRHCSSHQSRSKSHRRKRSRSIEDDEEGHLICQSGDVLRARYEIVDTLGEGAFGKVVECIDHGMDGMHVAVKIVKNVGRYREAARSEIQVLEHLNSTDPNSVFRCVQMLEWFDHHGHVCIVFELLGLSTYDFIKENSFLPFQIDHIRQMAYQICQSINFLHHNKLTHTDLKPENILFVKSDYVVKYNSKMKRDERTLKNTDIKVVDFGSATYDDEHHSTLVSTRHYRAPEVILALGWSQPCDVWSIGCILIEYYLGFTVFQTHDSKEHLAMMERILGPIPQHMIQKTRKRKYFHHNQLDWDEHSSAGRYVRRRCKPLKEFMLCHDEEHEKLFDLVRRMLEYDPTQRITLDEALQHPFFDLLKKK

A word on the Kd: it is a measure of binding affinity in units of concentration. As to `Cc1ccc(C(=O)Nc2ccc(Oc3cc4cnn(C)c4cc3-c3cn[nH]c3)c(F)c2)c(=O)n1-c1ccc(F)cc1` [MERESTINIB], the Kd (in [1]; in [2]; in assay [3]; in assay [4]; on UMP-CMP kinase; in assay [5]) was > 30 µM (inactive) each time. Also, the Kd in assay [6], in assay [7], in [8], in assay [9], in assay [10] and in assay [11] was > 30 µM (inactive) each time. Also, the Kd in assay [12] was 1.38 µM (active); in [13] it was > 30 µM (inactive); in [14] it was > 30 µM (inactive).

As usually defined, the pKd is the negative decadic logarithm of the Kd, by convention in mol/L. Consider `COCCN1CCN(Cc2ccc(-c3n[nH]c4c3C(=O)c3c(NC(=O)NN5CCOCC5)cccc3-4)cc2)CC1` [RGB-286638], for which the Kd in assay [1] is > 30 µM (inactive); in assay [2], > 30 µM (inactive); in [3], 0.018 µM (active); on UMP-CMP kinase, > 30 µM (inactive); in assay [5], > 30 µM (inactive); in assay [6], 0.008 µM (active). The Kd in assay [7], in assay [8], in assay [9], in assay [10], in [11] and in assay [12] was > 30 µM (inactive) in each case. In addition, the Kd in assay [13] and in [14] was > 30 µM (inactive) in each case. The compound also had a pKd in [4] of 8.70.

For the compound `CCc1cc2c(cc1N1CCC(N3CCOCC3)CC1)C(C)(C)c1[nH]c3cc(C#N)ccc3c1C2=O` [ALECTINIB], the Kd was > 30 µM (inactive) in assay [1]; > 30 µM (inactive) in [2]; > 30 µM (inactive) in [15]; 2.32 µM (active) in assay [3]; > 30 µM (inactive) in assay [4]; > 30 µM (inactive) at UMP-CMP kinase. The Kd in assay [6], in assay [8], in [9], in assay [10], in assay [13] and in assay [14] was > 30 µM (inactive) in each case.

Take `Cn1c(=O)n(-c2ccc(C(C)(C)C#N)cc2)c2c3cc(-c4cnc5ccccc5c4)ccc3ncc21` [DACTOLISIB]: the Kd (in [1]; on UMP-CMP kinase; in [5]; in assay [7]; in [9]; in [10]) was > 30 µM (inactive) each time. Besides, the Kd in assay [11], in assay [13] and in [14] was > 30 µM (inactive) throughout.

In the case of `COc1cccc2cc(-c3nc([C@H]4CC[C@H](C(=O)O)CC4)n4ncnc(N)c34)[nH]c12` [OSI-027], the Kd (in assay [3]; in assay [4]; at UMP-CMP kinase; in assay [5]; in assay [6]; in [7]) was > 30 µM (inactive) in each case. Further, the Kd is > 30 µM (inactive) in assay [8]; > 30 µM (inactive) in [9]; > 30 µM (inactive) in assay [10]; > 30 µM (inactive) in assay [11]; 0.057 µM (active) in [12]; > 30 µM (inactive) in assay [14].

Regarding `COc1ccc2c(OCc3nnc4ccc(-c5ccccc5)nn34)ccnc2c1` [AMG-208], the Kd (in assay [1]; in [15]; in [3]; in assay [4]; on UMP-CMP kinase; in [5]) was > 30 µM (inactive) throughout. For the same compound, the Kd in assay [6], in assay [7], in assay [8], in assay [9], in [10] and in [11] was > 30 µM (inactive) throughout. In addition, the Kd in assay [12], in assay [13] and in assay [14] was > 30 µM (inactive) each time.

The record behind these values is ChEMBL document CHEMBL3991601, “The target landscape of clinical kinase drugs” (Science, 2017).
